# In ChEMBL document CHEMBL4765381, “Neuropeptide FF and Its Receptors: Therapeutic Applications and Ligand Development” (J Med Chem, 2020):
# Square brackets hold non-standard residues; d marks the D form. Peptide text beside a SMILES is read from it. NMeF = CN[C@@H](Cc1ccccc1)C(=O)O; Tic = O=C(O)[C@@H]1Cc2ccccc2CN1
# Experiments:
# [1] = target: T1, Neuropeptide FF receptor 2 (Homo sapiens, UniProt Q9Y5X5); experiment: Displacement of [125I]-1DMeNPFF from human NPFFR2 expressed in HEK293 cells incubated for 2 hrs by scintillation counting method; assay type: cell-based
# [2] = target: T2, Neuropeptide FF receptor 1 (Homo sapiens, UniProt Q9GZQ6); experiment: Displacement of [125I]YVP from human NPFFR1 expressed in HEK293 cells by radioligand binding assay; assay type: cell-based
# [3] = Binding affinity to NPFFR in rat spinal cord; assay type: tissue-based
# [4] = target: T1, Neuropeptide FF receptor 2; experiment: Agonist activity at human NPFFR2 expressed in CHO cells assessed as inhibition of forskolin-induced intracellular cAMP production incubated for 5 hrs by firefly/renilla luciferase reporter assay; assay type: functional, cell-based
# [5] = target: T1, Neuropeptide FF receptor 2; experiment: Displacement of TAMRA-NPFF from human NPFFR2 expressed in CHO-K1 cells preincubated for 15 mins followed by GTPgammaS addition and measured after 15 to 120 mins by competitive binding assay; assay type: cell-based
# Mus musculus = experiment: Reversal of morphine-induced analgesia in icv dosed CDF1 mouse assessed as minimum effective dose measured after 15 mins by tail-flick test; assay type: functional; details: 0.25 h
# [6] = Displacement of [125I][Tyr1]-NPFF from NPFF receptor in rat spinal cord membranes by Cheng-Prusoff analysis; assay type: cell membranes, Membrane
# [7] = target: T2, Neuropeptide FF receptor 1; experiment: Antagonist activity at human NPFFR1 expressed in CHO-K1 cells assessed as reversal of agonist-induced inhibition of forskolin-stimulated cAMP accumulation incubated for 30 mins by LANCE ultra cAMP assay; assay type: functional, cell-based
# [8] = target: T1, Neuropeptide FF receptor 2; experiment: Antagonist activity at human NPFFR2 expressed in CHO-K1 cells assessed as reversal of agonist-induced inhibition of forskolin-stimulated cAMP accumulation incubated for 30 mins by LANCE ultra cAMP assay; assay type: functional, cell-based
# [9] = target: T1, Neuropeptide FF receptor 2; experiment: Antagonist activity at human NPFFR2 expressed in CHO-K1 cells assessed as apparent dissociation constant Ke by Eu-cAMP tracer based TR-FRET assay; assay type: functional, cell-based; details: filed as antagonist
# [10] = target: T2, Neuropeptide FF receptor 1; experiment: Displacement of [125I]NPFF from human NPFFR1 expressed in CHO cell membranes incubated for 120 mins by scintillation/luminescence counting method; parameters: species or system Membrane
# [11] = target: T1, Neuropeptide FF receptor 2; experiment: Antagonist activity at human NPFFR2 expressed in CHO-RD-HGA16 cells assessed as reduction in NPFF-induced calcium influx by measuring apparent dissociation constant Ke preincubated for 15 mins followed by NPFF addition by calcium-5 dye based fluorescence method; assay type: functional, cell-based; details: CHO/Galpha16, filed as antagonist
# [12] = target: T2, Neuropeptide FF receptor 1; experiment: Antagonist activity at human NPFFR1 expressed in CHO-RD-HGA16 cells assessed as reduction in NPFF-induced calcium influx by measuring apparent dissociation constant Ke preincubated for 15 mins followed by NPFF addition by calcium-5 dye based fluorescence method; assay type: functional, cell-based; details: CHO/Galpha16, filed as antagonist
# [13] = target: T2, Neuropeptide FF receptor 1; experiment: Antagonist activity at human NPFFR1 expressed in CHO-K1 cells assessed as apparent dissociation constant Ke by Eu-cAMP tracer based TR-FRET assay; assay type: functional, cell-based; details: filed as antagonist
# [14] = target: T1, Neuropeptide FF receptor 2; experiment: Displacement of [125I]NPFF from human NPFFR2 expressed in CHO cell membranes incubated for 120 mins by scintillation/luminescence counting method; parameters: species or system Membrane
# [15] = target: T1, Neuropeptide FF receptor 2; experiment: Displacement of [125I]EYF from human NPFFR2 expressed in CHO cells by gamma-counter method; assay type: cell-based
# [16] = target: Neuropeptide FF receptor 1 (Rattus norvegicus, UniProt Q9EP86); experiment: Displacement of [125I](Tyr)NPF from rat NPFFR1 expressed in rat PC12 cells incubated for 1 hr; assay type: cell-based, PC-12
# [17] = target: T1, Neuropeptide FF receptor 2; experiment: Agonist activity at human NPFFR2 expressed in CHO cells assessed as stimulation of [35S]-GTPgammaS binding preincubated for 30 mins followed by [35S]-GTPgammaS stimulation and measured after 30 mins by scintillation counting method; assay type: functional, cell-based
# [18] = target: T1, Neuropeptide FF receptor 2; experiment: Displacement of [125I]Tyr-NPFF from human NPFFR2 expressed in green monkey Cos-1 cells; assay type: cell-based
# [19] = target: T2, Neuropeptide FF receptor 1; experiment: Displacement of [125I]YVP from human NPFFR1 expressed in CHO cells; assay type: cell-based
# [20] = target: T2, Neuropeptide FF receptor 1; experiment: Agonist activity at NPFFR1 (unknown origin) expressed in mouse NIH3T3 cells by receptor selection and amplification technology assay; assay type: cell-based
# [21] = target: T1, Neuropeptide FF receptor 2; experiment: Agonist activity at NPFFR2 (unknown origin) expressed in mouse NIH3T3 cells by receptor selection and amplification technology assay relative to control; assay type: cell-based; details: filed as agonist
# [22] = target: T1, Neuropeptide FF receptor 2; experiment: Agonist activity at NPFFR2 (unknown origin) expressed in HEK293T cells harboring EP2 incubated for 15 mins by cAMP assay relative to control; assay type: functional, cell-based; details: filed as agonist
# [23] = target: T2, Neuropeptide FF receptor 1; experiment: Agonist activity at NPFFR1 (unknown origin) expressed in HEK293T cells harboring EP2 incubated for 15 mins by cAMP assay relative to control; assay type: functional, cell-based; details: filed as agonist
# [24] = target: T2, Neuropeptide FF receptor 1; experiment: Agonist activity at NPFFR1 (unknown origin) expressed in HEK293T cells harboring EP2 incubated for 15 mins by cAMP assay; assay type: functional, cell-based
# [25] = target: T2, Neuropeptide FF receptor 1; experiment: Agonist activity at NPFFR1 (unknown origin) expressed in mouse NIH3T3 cells by receptor selection and amplification technology assay relative to control; assay type: cell-based
# T1 sequence (Q9Y5X5 whole entry): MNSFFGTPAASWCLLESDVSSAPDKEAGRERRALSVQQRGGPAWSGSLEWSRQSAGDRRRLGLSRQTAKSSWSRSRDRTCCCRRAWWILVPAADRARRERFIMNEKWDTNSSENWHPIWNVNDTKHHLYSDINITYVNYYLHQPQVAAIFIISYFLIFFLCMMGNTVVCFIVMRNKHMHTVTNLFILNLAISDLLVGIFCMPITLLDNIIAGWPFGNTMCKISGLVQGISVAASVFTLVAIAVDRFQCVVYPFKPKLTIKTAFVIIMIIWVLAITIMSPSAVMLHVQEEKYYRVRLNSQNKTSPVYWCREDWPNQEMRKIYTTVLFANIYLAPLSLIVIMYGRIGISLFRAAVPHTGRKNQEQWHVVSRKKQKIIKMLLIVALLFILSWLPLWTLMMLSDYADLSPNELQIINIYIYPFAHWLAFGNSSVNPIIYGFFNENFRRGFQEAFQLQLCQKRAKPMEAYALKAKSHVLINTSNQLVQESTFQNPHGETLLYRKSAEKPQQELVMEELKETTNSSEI
# T2 sequence (Q9GZQ6 whole entry): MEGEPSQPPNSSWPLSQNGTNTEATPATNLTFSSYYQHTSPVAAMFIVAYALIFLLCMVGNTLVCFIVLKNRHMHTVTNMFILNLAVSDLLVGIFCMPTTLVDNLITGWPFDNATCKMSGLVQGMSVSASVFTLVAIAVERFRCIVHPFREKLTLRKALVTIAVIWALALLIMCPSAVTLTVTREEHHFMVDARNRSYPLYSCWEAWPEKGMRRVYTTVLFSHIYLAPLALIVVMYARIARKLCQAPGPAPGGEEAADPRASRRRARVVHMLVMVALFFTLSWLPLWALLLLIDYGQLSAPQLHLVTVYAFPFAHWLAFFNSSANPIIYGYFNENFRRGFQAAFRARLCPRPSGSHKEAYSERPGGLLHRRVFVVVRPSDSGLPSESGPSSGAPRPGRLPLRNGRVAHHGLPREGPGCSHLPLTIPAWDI
# Sequence of Neuropeptide FF receptor 1 (Rattus norvegicus, UniProt Q9EP86) (Q9EP86 whole entry): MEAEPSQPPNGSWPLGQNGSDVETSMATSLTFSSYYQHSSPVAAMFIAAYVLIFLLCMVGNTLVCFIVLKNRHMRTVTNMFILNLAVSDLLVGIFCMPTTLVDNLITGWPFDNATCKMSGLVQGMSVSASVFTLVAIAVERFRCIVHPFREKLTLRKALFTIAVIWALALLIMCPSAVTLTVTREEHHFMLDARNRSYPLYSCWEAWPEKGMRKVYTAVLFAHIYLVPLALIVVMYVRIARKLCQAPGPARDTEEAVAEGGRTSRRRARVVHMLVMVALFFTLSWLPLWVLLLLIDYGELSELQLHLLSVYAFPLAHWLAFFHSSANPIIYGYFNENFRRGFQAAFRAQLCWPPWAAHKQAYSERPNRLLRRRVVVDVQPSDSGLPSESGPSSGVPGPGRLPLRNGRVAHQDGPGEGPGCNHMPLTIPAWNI
compound,measurement,setting,value
CC(C)C[C@H](NC(=O)[C@H](N)Cc1ccc(O)cc1)C(=O)N(C)[C@@H](Cc1ccccc1)C(=O)N[C@@H](CCC(N)=O)C(=O)N1CCC[C@H]1C(=O)N[C@@H](CCC(N)=O)C(=O)N[C@@H](CCCN=C(N)N)C(=O)N[C@@H](Cc1ccccc1)C(N)=O (H-[dY]L[NMeF]QPQRF-NH2),Ki,[1],3.2 nM
same,Ki,[2],2 nM
same,Ki,[3],0.07 nM
COc1cc2c(c(OC)c1OC)-c1c(cc(C)c(C)c1OC)[C@@H](C(=O)Oc1ccccc1)[C@@](C)(O)[C@@H](C)C2,EC50,[4],1470 nM
same,Ki,[5],1.42 nM
CC(C)C[C@H](NC(=O)[C@@H](N)Cc1ccc(O)cc1)C(=O)N[C@@H](Cc1ccccc1)C(=O)N[C@@H](CCC(N)=O)C(=O)N1CCC[C@H]1C(=O)N[C@@H](CCC(N)=O)C(=O)N[C@@H](CCCN=C(N)N)C(=O)N[C@@H](Cc1ccccc1)C(N)=O (H-YLFQPQRF-NH2),MEC,Mus musculus,8.8 nmol
same,Ki,[6],0.2 nM
N=C(N)NCCC[C@@H](NC(=O)C(c1ccccc1)c1ccccc1)C(=O)N[C@@H](C(N)=O)c1ccccc1,IC50,[7],21 nM
same,IC50,[8],387 nM
COc1ccc(CN[C@H]2C[C@@H](C(=O)OCCc3ccc([N+](=O)[O-])cc3)N(Cc3ccccc3Cl)C2)cc1,Ke,[9],1.17 µM
same,Ki,[10],610 nM
same,Ke,[11],0.69 µM
same,Ke,[12],0.25 µM
same,Ke,[13],0.49 µM
same,Ki,[14],1670 nM
CC(C)C[C@H](NC(=O)[C@H](CC(N)=O)NC(=O)[C@@H]1CCCN1C(=O)[C@@H](N)C(C)C)C(=O)N1CCC[C@H]1C(=O)N[C@@H](CCC(N)=O)C(=O)N[C@@H](CCCNC(=N)N)C(=O)N[C@@H](Cc1ccccc1)C(N)=O,Ki,[15],23 nM
CCCCCOC(=O)[C@@H]1C[C@H](NCc2ccc(OC)cc2)CN1Cc1ccccc1Cl,Ke,[9],2.15 µM
same,Ki,[10],890 nM
same,Ke,[11],3.09 µM
same,Ke,[12],0.85 µM
same,Ke,[13],0.36 µM
same,Ki,[14],1440 nM
N=C(N)NCCC[C@H](NC(=O)[C@H](Cc1ccccc1)NC(=O)[C@@H]1CCCN1)C(=O)N1Cc2ccccc2C[C@H]1C(N)=O (H-PFR[Tic]-NH2),IC50,[16],0.1 nM
same,Ki,[16],101 nM
same,EC50,[17],2400 nM
NC(N)=NCCC[C@H](NC(=O)C(c1ccccc1)c1ccccc1)C(=O)NCc1ccc(O)cc1,Ki,[18],461 nM
same,Ki,[19],12 nM
N=C(N)N/N=C/c1ccc(Cl)c(C(F)(F)F)c1,EC50,[20],3160 nM
same,Efficacy,[21],108%
same,Efficacy,[22],89%
same,Efficacy,[23],42%
same,EC50,[24],3160 nM
same,Efficacy,[25],30.6%
